For orientation: Ki means a dissociation constant, usually derived from enzyme kinetics or from competition with a known ligand. A low value points to tighter binding.

These results are taken from ChEMBL document CHEMBL1141418 (J Med Chem, 2007).

Assay [1] is filed under the species Rattus norvegicus. Put plainly: Antidiuretic activity in rat. The format is functional, Urine.
Assay [2] is filed under the species Rattus norvegicus. Put plainly: Vasopressor activity in rat. The format is functional.
For assay [3], the target named is T1, Oxytocin receptor (Homo sapiens) (UniProt P30559).
T1 sequence (whole entry): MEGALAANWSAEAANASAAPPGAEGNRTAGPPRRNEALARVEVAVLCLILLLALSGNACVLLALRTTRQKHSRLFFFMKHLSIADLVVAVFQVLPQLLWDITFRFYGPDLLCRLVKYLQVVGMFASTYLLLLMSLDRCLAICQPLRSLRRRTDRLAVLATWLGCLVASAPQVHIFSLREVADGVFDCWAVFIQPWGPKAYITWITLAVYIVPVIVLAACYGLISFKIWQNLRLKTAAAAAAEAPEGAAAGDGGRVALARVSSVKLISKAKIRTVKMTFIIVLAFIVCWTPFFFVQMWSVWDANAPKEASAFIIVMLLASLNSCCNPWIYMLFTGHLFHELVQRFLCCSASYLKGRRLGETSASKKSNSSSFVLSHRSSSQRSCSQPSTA
Put plainly: (§1) Activity at OT receptor assessed as oxytocic activity in absence of magnesium. The settings on record: filed as agonist. The format is functional.

A further assay has as its target Vasopressin V2 receptor (Rattus norvegicus, UniProt Q00788). As to the kind of experiment: Displacement of [3H]AVP from vasopressin V2 receptor in rat kidney membranes. The format is cell membranes, Membrane.
In a further assay the target is Vasopressin V1a receptor (Rattus norvegicus, UniProt P30560). Put plainly: Displacement of [3H]AVP from vasopressin V1a receptor in rat liver membrane. The format is cell membranes. In general terms: Displacement assays read how much labelled ligand stays bound in the presence of the test substance.
Vasopressin V1a receptor, sequence (P30560 whole entry): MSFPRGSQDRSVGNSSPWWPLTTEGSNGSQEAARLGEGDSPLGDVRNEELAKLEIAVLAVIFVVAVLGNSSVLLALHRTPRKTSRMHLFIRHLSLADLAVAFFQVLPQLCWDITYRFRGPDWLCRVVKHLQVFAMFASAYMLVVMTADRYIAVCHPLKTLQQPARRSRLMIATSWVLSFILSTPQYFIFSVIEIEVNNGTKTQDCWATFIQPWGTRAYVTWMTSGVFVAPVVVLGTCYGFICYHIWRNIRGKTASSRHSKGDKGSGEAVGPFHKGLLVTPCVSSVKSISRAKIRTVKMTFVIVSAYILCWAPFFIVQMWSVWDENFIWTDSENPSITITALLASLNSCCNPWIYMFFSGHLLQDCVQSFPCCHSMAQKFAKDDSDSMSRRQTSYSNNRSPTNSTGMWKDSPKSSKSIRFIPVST
Assay [4] deals with T2, Oxytocin receptor (Rattus norvegicus, UniProt P70536).
T2 sequence (P70536 whole entry): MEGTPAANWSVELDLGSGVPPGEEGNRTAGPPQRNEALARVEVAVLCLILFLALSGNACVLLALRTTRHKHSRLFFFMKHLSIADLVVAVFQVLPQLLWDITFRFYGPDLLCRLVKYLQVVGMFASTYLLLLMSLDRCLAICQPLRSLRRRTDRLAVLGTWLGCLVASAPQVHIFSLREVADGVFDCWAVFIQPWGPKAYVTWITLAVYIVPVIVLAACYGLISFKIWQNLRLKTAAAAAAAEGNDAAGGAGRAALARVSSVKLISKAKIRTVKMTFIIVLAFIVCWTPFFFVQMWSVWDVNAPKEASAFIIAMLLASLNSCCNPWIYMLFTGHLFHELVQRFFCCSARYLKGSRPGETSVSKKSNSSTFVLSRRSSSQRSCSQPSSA
Put plainly: Displacement of [3H]AVP from rat OT receptor expressed in CHO cells. The format is cell-based.

Assay [5] concerns the target Vasopressin V2 receptor (Rattus norvegicus) (UniProt Q00788). As to the kind of experiment: Activity at vasopressin V2 receptor in rat kidney membranes assessed as adenylate cyclase activity. The format is functional, cell membranes. The settings on record: Membrane, filed as agonist.
For assay [6] the target is unchanged. As to the kind of experiment: Activity at vasopressin V2 receptor in rat kidney membranes assessed as maximal adenylate cyclase activity relative to AVP. The format is functional, cell membranes. The settings on record: Membrane, filed as agonist.
The target in assay [7] is T3, Oxytocin receptor (Homo sapiens, UniProt P30559).
T3 sequence (P30559 whole entry): T1 sequence (whole entry)
The description is as §1. The format is functional. The settings on record: read-out: pA2 (converted).

Positions of bridges follow the written chain, without caps; N, C: chain ends. Non-standard residues stand in square brackets, D forms with d. Residues, ends and D or L forms follow the SMILES beside them. Cha = N[C@@H](CC1CCCCC1)C(=O)O; Orn = NCCC[C@H](N)C(=O)O; Dab = NCC[C@H](N)C(=O)O; Dap = NC[C@H](N)C(=O)O; Mpa = O=C(O)CCS

Vasopressin V2 receptor (Rattus norvegicus), sequence (Q00788 whole entry): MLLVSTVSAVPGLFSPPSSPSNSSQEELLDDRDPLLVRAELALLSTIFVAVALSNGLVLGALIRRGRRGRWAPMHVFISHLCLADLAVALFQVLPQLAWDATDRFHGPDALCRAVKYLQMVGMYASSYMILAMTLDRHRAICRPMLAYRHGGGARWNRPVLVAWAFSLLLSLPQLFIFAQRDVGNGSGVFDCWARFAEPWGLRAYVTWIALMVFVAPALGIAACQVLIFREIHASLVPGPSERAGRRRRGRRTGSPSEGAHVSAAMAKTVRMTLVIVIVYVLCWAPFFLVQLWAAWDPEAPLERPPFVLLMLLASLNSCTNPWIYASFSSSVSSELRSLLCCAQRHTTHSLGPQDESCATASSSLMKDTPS
Vasopressin V2 receptor, sequence (Q00788 whole entry): as above

Regarding `CC(C)C[C@@H]1NC(=O)[C@H](Cc2ccccc2)NC(=O)[C@H](Cc2ccc(O)cc2)NC(=O)CCSSC[C@@H](C(=O)N2CCC[C@H]2C(=O)N[C@@H](CCCCN)C(=O)NCC(N)=O)NC(=O)[C@H](CC(N)=O)NC1=O` ([Mpa]YFLNCPKG-NH2; disulfide 1-6), the Activity in the assay filed under Rattus norvegicus [1] was 10.5 U/mg; in the assay listed under Rattus norvegicus [2], 0.9 U/mg; in assay [3] it was 0.054 U/mg; in assay [6] it was 76%. Moreover, the Ki at Vasopressin V2 receptor is 100 nM (antagonist); at Vasopressin V1a receptor, 3800 nM (antagonist); on Oxytocin receptor [4] it was 64 nM (antagonist). Moreover, the Kact in assay [5] is 196 nM.

For the molecule `CC(C)C[C@@H]1NC(=O)[C@H](Cc2ccccc2)NC(=O)[C@H](Cc2ccc(O)cc2)NC(=O)CCSSC[C@@H](C(=O)N2CCC[C@H]2C(=O)N[C@@H](CCN)C(=O)NCC(N)=O)NC(=O)[C@H](CC(N)=O)NC1=O` ([Mpa]YFLNCP[Dab]G-NH2; disulfide 1-6), the Activity in the assay filed under Rattus norvegicus [1] is 5.7 U/mg; in the assay filed under Rattus norvegicus [2], 3.5 U/mg; in assay [3], 0.27 U/mg. Further, the Ki at Vasopressin V2 receptor was 210 nM (antagonist); on Vasopressin V1a receptor it was 1000 nM (antagonist); at Oxytocin receptor [4] it was 41 nM (antagonist).

As for `CC(C)C[C@@H]1NC(=O)[C@H](Cc2ccccc2)NC(=O)[C@H](Cc2ccc(O)cc2)NC(=O)CCSSC[C@@H](C(=O)N2CCC[C@H]2C(=O)N[C@@H](CN)C(=O)NCC(N)=O)NC(=O)[C@H](CC(N)=O)NC1=O` ([Mpa]YFLNCP[Dap]G-NH2; disulfide 1-6), the Activity is 0.7 U/mg in the assay filed under Rattus norvegicus [1], 0.05 U/mg in the assay listed under Rattus norvegicus [2], 0.046 U/mg in [3] and 97% in [6]. Also, the Ki at Vasopressin V2 receptor was 240 nM (antagonist); at Vasopressin V1a receptor, 3300 nM (antagonist); on Oxytocin receptor [4] it was 134 nM (antagonist). Moreover, in assay [5], the Kact is 300 nM.

For the molecule `N=C(N)NCCC[C@@H]1NC(=O)[C@H](Cc2ccccc2)NC(=O)[C@H](Cc2ccc(O)cc2)NC(=O)CCSSC[C@@H](C(=O)N2CCC[C@H]2C(=O)N[C@@H](CCCCN)C(=O)NCC(N)=O)NC(=O)[C@H](CC(N)=O)NC1=O` ([Mpa]YFRNCPKG-NH2; disulfide 1-6), the Activity was 784 U/mg in the assay filed under Rattus norvegicus [1], 83 U/mg in the assay listed under Rattus norvegicus [2] and 0.15 U/mg in assay [3]. Besides, the values for the Ki at Vasopressin V2 receptor, on Vasopressin V1a receptor and on Oxytocin receptor [4] were 3.8 nM (antagonist), 130 nM (antagonist) and 125 nM (antagonist), respectively.

For the molecule `N=C(N)NCCC[C@@H]1NC(=O)[C@H](Cc2ccccc2)NC(=O)[C@H](Cc2ccc(O)cc2)NC(=O)CCSSC[C@@H](C(=O)N2CCC[C@H]2C(=O)N[C@@H](CCN)C(=O)NCC(N)=O)NC(=O)[C@H](CC(N)=O)NC1=O` ([Mpa]YFRNCP[Dab]G-NH2; disulfide 1-6), the Activity in the assay filed under Rattus norvegicus [1] is 431 U/mg; in the assay filed under Rattus norvegicus [2] it was 190 U/mg; in [3] it was 0.14 U/mg. The Ki is 1.8 nM (antagonist) on Vasopressin V2 receptor, 25 nM (antagonist) on Vasopressin V1a receptor and 195 nM (antagonist) on Oxytocin receptor [4].

With `N=C(N)NCCC[C@@H]1NC(=O)[C@H](Cc2ccccc2)NC(=O)[C@H](Cc2ccc(O)cc2)NC(=O)CCSSC[C@@H](C(=O)N2CCC[C@H]2C(=O)N[C@@H](CCCN)C(=O)NCC(N)=O)NC(=O)[C@H](CC(N)=O)NC1=O` ([Mpa]YFRNCP[Orn]G-NH2; disulfide 1-6), the Activity was 823 U/mg in the assay listed under Rattus norvegicus [1], 173 U/mg in the assay listed under Rattus norvegicus [2] and 0.06 U/mg in assay [3]. For the same molecule, the values for the inhibition constant Ki at Vasopressin V2 receptor, on Vasopressin V1a receptor and on Oxytocin receptor [4] were 3.1 nM (antagonist), 67 nM (antagonist) and 130 nM (antagonist), respectively.

On to `NCCCC[C@H](NC(=O)[C@@H]1CCCN1C(=O)[C@@H]1CSSCCC(=O)N[C@@H](Cc2ccc(O)cc2)C(=O)N[C@@H](Cc2ccccc2)C(=O)N[C@@H](CC2CCCCC2)C(=O)N[C@@H](CC(N)=O)C(=O)N1)C(=O)NCC(N)=O` ([Mpa]YF[Cha]NCPKG-NH2; disulfide 1-6), for which the Activity in the assay filed under Rattus norvegicus [1] was 0.82 U/mg; in the assay filed under Rattus norvegicus [2], 0.043 U/mg. In addition, the Kb on Oxytocin receptor [7] was 331 nM (agonist). In addition, the results for the Ki on Vasopressin V2 receptor, on Vasopressin V1a receptor and at Oxytocin receptor [4] were 600 nM (antagonist), 9100 nM (antagonist) and 590 nM (antagonist), respectively.

`NC(=O)CNC(=O)[C@H](CCCN=C(N)N)NC(=O)[C@@H]1CCCN1C(=O)[C@@H]1CSSCCC(=O)N[C@@H](Cc2ccc(O)cc2)C(=O)N[C@@H](Cc2ccccc2)C(=O)N[C@@H](CC2CCCCC2)C(=O)N[C@@H](CC(N)=O)C(=O)N1` ([Mpa]YF[Cha]NCPRG-NH2; disulfide 1-6): the results for the Activity (in the assay filed under Rattus norvegicus [1]; in the assay listed under Rattus norvegicus [2]; in assay [6]) were 133.6 U/mg, 0.067 U/mg and 86%, respectively. The Ki on Vasopressin V2 receptor was 12.7 nM (antagonist); on Vasopressin V1a receptor it was 2300 nM (antagonist).

For the molecule `NCC[C@H](NC(=O)[C@@H]1CCCN1C(=O)[C@@H]1CSSCCC(=O)N[C@@H](Cc2ccc(O)cc2)C(=O)N[C@@H](Cc2ccccc2)C(=O)N[C@@H](CC2CCCCC2)C(=O)N[C@@H](CC(N)=O)C(=O)N1)C(=O)NCC(N)=O` ([Mpa]YF[Cha]NCP[Dab]G-NH2; disulfide 1-6), the results for the Activity (in the assay filed under Rattus norvegicus [1]; in the assay listed under Rattus norvegicus [2]; in [6]) were 1 U/mg, 0.18 U/mg and 75%, respectively. Besides, at Oxytocin receptor [7], the Kb is recorded as 447 nM (agonist). Further, the values for the Ki on Vasopressin V2 receptor, at Vasopressin V1a receptor and on Oxytocin receptor [4] were 450 nM (antagonist), 4400 nM (antagonist) and 430 nM (antagonist), respectively. Moreover, the Kact in assay [5] is 174 nM.

With `NC[C@H](NC(=O)[C@@H]1CCCN1C(=O)[C@@H]1CSSCCC(=O)N[C@@H](Cc2ccc(O)cc2)C(=O)N[C@@H](Cc2ccccc2)C(=O)N[C@@H](CC2CCCCC2)C(=O)N[C@@H](CC(N)=O)C(=O)N1)C(=O)NCC(N)=O` ([Mpa]YF[Cha]NCP[Dap]G-NH2; disulfide 1-6), the Activity in the assay listed under Rattus norvegicus [1] came out at 0.3 U/mg; in the assay listed under Rattus norvegicus [2], 0.002 U/mg. At Oxytocin receptor [7], the Kb is recorded as 479 nM (agonist). The values for the Ki at Vasopressin V2 receptor, at Vasopressin V1a receptor and on Oxytocin receptor [4] were 1050 nM (antagonist), 1800 nM (antagonist) and 1200 nM (antagonist), respectively.

With `NCCC[C@H](NC(=O)[C@@H]1CCCN1C(=O)[C@@H]1CSSCCC(=O)N[C@@H](Cc2ccc(O)cc2)C(=O)N[C@@H](Cc2ccccc2)C(=O)N[C@@H](CC2CCCCC2)C(=O)N[C@@H](CC(N)=O)C(=O)N1)C(=O)NCC(N)=O` ([Mpa]YF[Cha]NCP[Orn]G-NH2; disulfide 1-6), the values for the Activity in the assay filed under Rattus norvegicus [1] and in the assay listed under Rattus norvegicus [2] were 1 U/mg and 0.22 U/mg, respectively. In addition, the Kb at Oxytocin receptor [7] is listed as 282 nM (agonist). Further, the Ki on Vasopressin V2 receptor is 450 nM (antagonist); at Vasopressin V1a receptor, 2900 nM (antagonist); at Oxytocin receptor [4], 550 nM (antagonist).

Turning to `NCCCC[C@H](NC(=O)[C@@H]1CCCN1C(=O)[C@@H]1CSSCCC(=O)N[C@@H](Cc2ccc(O)cc2)C(=O)N[C@@H](Cc2ccccc2)C(=O)N[C@@H](CCCN)C(=O)N[C@@H](CC(N)=O)C(=O)N1)C(=O)NCC(N)=O` ([Mpa]YF[Orn]NCPKG-NH2; disulfide 1-6), the figures for the Activity (in the assay listed under Rattus norvegicus [1]; in the assay filed under Rattus norvegicus [2]; in [3]) were 7.8 U/mg, 0.23 U/mg and 3.1 U/mg, respectively. The results for the Ki at Vasopressin V2 receptor, on Vasopressin V1a receptor and on Oxytocin receptor [4] were 51 nM (antagonist), 2800 nM (antagonist) and 22 nM (antagonist), respectively.

With `NCCC[C@@H]1NC(=O)[C@H](Cc2ccccc2)NC(=O)[C@H](Cc2ccc(O)cc2)NC(=O)CCSSC[C@@H](C(=O)N2CCC[C@H]2C(=O)N[C@@H](CCCN)C(=O)NCC(N)=O)NC(=O)[C@H](CC(N)=O)NC1=O` ([Mpa]YF[Orn]NCP[Orn]G-NH2; disulfide 1-6), the Activity in the assay listed under Rattus norvegicus [1] was 7.9 U/mg; in the assay filed under Rattus norvegicus [2], 1.9 U/mg; in assay [3], 2.8 U/mg. Also, the Ki is 76 nM (antagonist) on Vasopressin V2 receptor, 1300 nM (antagonist) at Vasopressin V1a receptor and 37 nM (antagonist) on Oxytocin receptor [4].

As to `NC(=O)CC[C@@H]1NC(=O)[C@H](Cc2ccccc2)NC(=O)[C@H](Cc2ccc(O)cc2)NC(=O)[C@@H](N)CSSC[C@@H](C(=O)N2CCC[C@H]2C(=O)N[C@@H](CCCN=C(N)N)C(=O)NCC(N)=O)NC(=O)[C@H](CC(N)=O)NC1=O` [VASOPRESSIN], the Ki on Oxytocin receptor [4] was 1.17 nM (antagonist).
